Counter-ions that a name gives are not always drawn.
system: human KB epidermoid carcinoma cells, wildtype KB 3-1; test: In vitro cytotoxicity / potentiation of Actinomycin D in human KB epidermoid carcinoma cells, wildtype KB 3-1 (MTT); type: cell-based; conditions: 1 μM potentiating agent + Act D 0.1 nM; 96 h; fraction of Act D alone

Compound | Synergism with Actinomycin D, normalized absorbance, Wildtype KB 3-1, +ACT D
Fc1ccc2c(c1)/C(=C\CCN1CCCC1)c1ccccc1CO2 [(T), (Z)-1-[3-(2-fluoro-6,11-dihydrodibenz [b,e]-oxepin-11-ylidene)propyl]pyrrolidine] | 0.90
CN(C)CC/C=C1/c2ccccc2COc2ccc(F)cc21 [(Q), (Z)-3-(2-fluoro-6,11-dihydrodibenz [b,e]oxepin-11-ylidene)-N,N-dimethylpropylamine] | 0.91
Brc1cccc2c1OCc1ccccc1C2=CCN1CCCC1 [(J), 1-[2-(4-Bromo-6,11-dihydrodibenz[b,e]oxepin-11-ylidine)-ethyl]pyrrolidine 60% Z, 40% E] | 0.85

same assay, conditions: 10 μM potentiating agent + Act D 0.1 nM; 96 h; fraction of Act D alone

Compound | Synergism with Actinomycin D, normalized absorbance, Wildtype KB 3-1, +ACT D
Fc1ccc2c(c1)/C(=C\CCN1CCCC1)c1ccccc1CO2 [(T), (Z)-1-[3-(2-fluoro-6,11-dihydrodibenz [b,e]-oxepin-11-ylidene)propyl]pyrrolidine] | 0.83
CN(C)CC/C=C1/c2ccccc2COc2ccc(F)cc21 [(Q), (Z)-3-(2-fluoro-6,11-dihydrodibenz [b,e]oxepin-11-ylidene)-N,N-dimethylpropylamine] | 0.78
CN(C)CC/C=C1\c2ccccc2COc2ccc(Br)cc21 [(B), (E)-3-(2-Bromo-6,11-dihydrodibenz [b,e]oxepin-11-ylidene)-N,N-dimethylpropylamine 3/2 hydrochloride] | 0.91
Brc1cccc2c1OCc1ccccc1C2=CCN1CCCC1 [(J), 1-[2-(4-Bromo-6,11-dihydrodibenz[b,e]oxepin-11-ylidine)-ethyl]pyrrolidine 60% Z, 40% E] | 0.77

system: not listed separately; test: as above; type: cell-based; conditions: human, kb 3-1 cells, 1 μM potentiating agent alone, fraction of untreated cultures, read-out: Cytotoxicity, normalized absorbance, Wildtype KB 3-1, 0 (no Act D)

Compound | viability at 96 h, 1 µM [%]
Fc1ccc2c(c1)/C(=C\CCN1CCCC1)c1ccccc1CO2 [(T), (Z)-1-[3-(2-fluoro-6,11-dihydrodibenz [b,e]-oxepin-11-ylidene)propyl]pyrrolidine] | 86
CN(C)CC/C=C1/c2ccccc2COc2ccc(F)cc21 [(Q), (Z)-3-(2-fluoro-6,11-dihydrodibenz [b,e]oxepin-11-ylidene)-N,N-dimethylpropylamine] | 92
Brc1ccc2c(c1)/C(=C/CCN1CCCC1)c1ccccc1OC2 [(M), (Z)-1-[3-(9-Bromo-6,11-dihydrodibenz [b,e]-oxepin-11-ylidene)propyl]pyrrolidine] | 100
CN(C)CC/C=C1\c2ccccc2COc2ccc(Br)cc21 [(B), (E)-3-(2-Bromo-6,11-dihydrodibenz [b,e]oxepin-11-ylidene)-N,N-dimethylpropylamine 3/2 hydrochloride] | 100
Brc1cccc2c1OCc1ccccc1C2=CCN1CCCC1 [(J), 1-[2-(4-Bromo-6,11-dihydrodibenz[b,e]oxepin-11-ylidine)-ethyl]pyrrolidine 60% Z, 40% E] | 89

same assay, conditions: human, kb 3-1 cells, 10 μM potentiating agent alone, fraction of untreated cultures, read-out: Cytotoxicity, normalized absorbance, Wildtype KB 3-1, 0 (no Act D)

Compound | viability at 96 h, 10 µM [%]
Fc1ccc2c(c1)/C(=C\CCN1CCCC1)c1ccccc1CO2 [(T), (Z)-1-[3-(2-fluoro-6,11-dihydrodibenz [b,e]-oxepin-11-ylidene)propyl]pyrrolidine] | 81
CN(C)CC/C=C1/c2ccccc2COc2ccc(F)cc21 [(Q), (Z)-3-(2-fluoro-6,11-dihydrodibenz [b,e]oxepin-11-ylidene)-N,N-dimethylpropylamine] | 77
Brc1ccc2c(c1)/C(=C/CCN1CCCC1)c1ccccc1OC2 [(M), (Z)-1-[3-(9-Bromo-6,11-dihydrodibenz [b,e]-oxepin-11-ylidene)propyl]pyrrolidine] | 96
CN(C)CC/C=C1\c2ccccc2COc2ccc(Br)cc21 [(B), (E)-3-(2-Bromo-6,11-dihydrodibenz [b,e]oxepin-11-ylidene)-N,N-dimethylpropylamine 3/2 hydrochloride] | 83
Brc1cccc2c1OCc1ccccc1C2=CCN1CCCC1 [(J), 1-[2-(4-Bromo-6,11-dihydrodibenz[b,e]oxepin-11-ylidine)-ethyl]pyrrolidine 60% Z, 40% E] | 80

system: Chinese hamster ovary (CHO) cells, drug resistant C5S32; test: In vitro cytotoxicity / potentiation of Actinomycin D in Chinese hamster ovary cells, drug resistant C5S32 (MTT); type: cell-based; conditions: 1 μM potentiating agent + Act D 0.5 μM; 96 h; fraction of Act D alone (1.00)

Compound | Synergism with Actinomycin D, normalized absorbance, Drug Resistant C5S32, +ACT D
Fc1ccc2c(c1)/C(=C\CCN1CCCC1)c1ccccc1CO2 [(T), (Z)-1-[3-(2-fluoro-6,11-dihydrodibenz [b,e]-oxepin-11-ylidene)propyl]pyrrolidine] | 1.00
CN(C)CC/C=C1/c2ccccc2COc2ccc(F)cc21 [(Q), (Z)-3-(2-fluoro-6,11-dihydrodibenz [b,e]oxepin-11-ylidene)-N,N-dimethylpropylamine] | 0.69
Brc1ccc2c(c1)/C(=C/CCN1CCCC1)c1ccccc1OC2 [(M), (Z)-1-[3-(9-Bromo-6,11-dihydrodibenz [b,e]-oxepin-11-ylidene)propyl]pyrrolidine] | 0.83
CN(C)CC/C=C1\c2ccccc2COc2ccc(Br)cc21 [(B), (E)-3-(2-Bromo-6,11-dihydrodibenz [b,e]oxepin-11-ylidene)-N,N-dimethylpropylamine 3/2 hydrochloride] | 0.82
Brc1cccc2c1OCc1ccccc1C2=CCN1CCCC1 [(J), 1-[2-(4-Bromo-6,11-dihydrodibenz[b,e]oxepin-11-ylidine)-ethyl]pyrrolidine 60% Z, 40% E] | 0.66

same assay, conditions: 10 μM potentiating agent + Act D 0.5 μM; 96 h; fraction of Act D alone (1.00)

Compound | Synergism with Actinomycin D, normalized absorbance, Drug Resistant C5S32, +ACT D
Fc1ccc2c(c1)/C(=C\CCN1CCCC1)c1ccccc1CO2 [(T), (Z)-1-[3-(2-fluoro-6,11-dihydrodibenz [b,e]-oxepin-11-ylidene)propyl]pyrrolidine] | 0.53
CN(C)CC/C=C1/c2ccccc2COc2ccc(F)cc21 [(Q), (Z)-3-(2-fluoro-6,11-dihydrodibenz [b,e]oxepin-11-ylidene)-N,N-dimethylpropylamine] | 0.37
Brc1ccc2c(c1)/C(=C/CCN1CCCC1)c1ccccc1OC2 [(M), (Z)-1-[3-(9-Bromo-6,11-dihydrodibenz [b,e]-oxepin-11-ylidene)propyl]pyrrolidine] | 0.35
CN(C)CC/C=C1\c2ccccc2COc2ccc(Br)cc21 [(B), (E)-3-(2-Bromo-6,11-dihydrodibenz [b,e]oxepin-11-ylidene)-N,N-dimethylpropylamine 3/2 hydrochloride] | 0.37
Brc1cccc2c1OCc1ccccc1C2=CCN1CCCC1 [(J), 1-[2-(4-Bromo-6,11-dihydrodibenz[b,e]oxepin-11-ylidine)-ethyl]pyrrolidine 60% Z, 40% E] | 0.12

system: not listed separately; test: as above; type: cell-based; conditions: hamster, cho c5s32 cells, 1 μM potentiating agent alone, fraction of untreated cultures (1.00), read-out: Cytotoxicity, normalized absorbance, Drug Resistant C5S32, 0 (no Act D)

Compound | viability at 96 h, 1 µM [%]
Fc1ccc2c(c1)/C(=C\CCN1CCCC1)c1ccccc1CO2 [(T), (Z)-1-[3-(2-fluoro-6,11-dihydrodibenz [b,e]-oxepin-11-ylidene)propyl]pyrrolidine] | 100
CN(C)CC/C=C1/c2ccccc2COc2ccc(F)cc21 [(Q), (Z)-3-(2-fluoro-6,11-dihydrodibenz [b,e]oxepin-11-ylidene)-N,N-dimethylpropylamine] | 53
Brc1ccc2c(c1)/C(=C/CCN1CCCC1)c1ccccc1OC2 [(M), (Z)-1-[3-(9-Bromo-6,11-dihydrodibenz [b,e]-oxepin-11-ylidene)propyl]pyrrolidine] | 86
CN(C)CC/C=C1\c2ccccc2COc2ccc(Br)cc21 [(B), (E)-3-(2-Bromo-6,11-dihydrodibenz [b,e]oxepin-11-ylidene)-N,N-dimethylpropylamine 3/2 hydrochloride] | 83
Brc1cccc2c1OCc1ccccc1C2=CCN1CCCC1 [(J), 1-[2-(4-Bromo-6,11-dihydrodibenz[b,e]oxepin-11-ylidine)-ethyl]pyrrolidine 60% Z, 40% E] | 80

same assay, conditions: hamster, cho c5s32 cells, 10 μM potentiating agent alone, fraction of untreated cultures (1.00), read-out: Cytotoxicity, normalized absorbance, Drug Resistant C5S32, 0 (no Act D)

Compound | viability at 96 h, 10 µM [%]
Fc1ccc2c(c1)/C(=C\CCN1CCCC1)c1ccccc1CO2 [(T), (Z)-1-[3-(2-fluoro-6,11-dihydrodibenz [b,e]-oxepin-11-ylidene)propyl]pyrrolidine] | 100
CN(C)CC/C=C1/c2ccccc2COc2ccc(F)cc21 [(Q), (Z)-3-(2-fluoro-6,11-dihydrodibenz [b,e]oxepin-11-ylidene)-N,N-dimethylpropylamine] | 33
Brc1ccc2c(c1)/C(=C/CCN1CCCC1)c1ccccc1OC2 [(M), (Z)-1-[3-(9-Bromo-6,11-dihydrodibenz [b,e]-oxepin-11-ylidene)propyl]pyrrolidine] | 100
CN(C)CC/C=C1\c2ccccc2COc2ccc(Br)cc21 [(B), (E)-3-(2-Bromo-6,11-dihydrodibenz [b,e]oxepin-11-ylidene)-N,N-dimethylpropylamine 3/2 hydrochloride] | 55
Brc1cccc2c1OCc1ccccc1C2=CCN1CCCC1 [(J), 1-[2-(4-Bromo-6,11-dihydrodibenz[b,e]oxepin-11-ylidine)-ethyl]pyrrolidine 60% Z, 40% E] | 29

system: not listed separately; test: In vitro cytotoxicity / potentiation of Actinomycin D in human KB epidermoid carcinoma cells, drug resistant KB V-1 (MTT); type: cell-based; conditions: human, kb v-1 cells, 1 μM potentiating agent alone, fraction of untreated cultures, read-out: Cytotoxicity, normalized absorbance, Drug Resistant KB V-1, 0 (no Act D)

Compound | viability at 96 h, 1 µM [%]
Fc1ccc2c(c1)/C(=C\CCN1CCCC1)c1ccccc1CO2 [(T), (Z)-1-[3-(2-fluoro-6,11-dihydrodibenz [b,e]-oxepin-11-ylidene)propyl]pyrrolidine] | 96
CN(C)CC/C=C1/c2ccccc2COc2ccc(F)cc21 [(Q), (Z)-3-(2-fluoro-6,11-dihydrodibenz [b,e]oxepin-11-ylidene)-N,N-dimethylpropylamine] | 86
Brc1ccc2c(c1)/C(=C/CCN1CCCC1)c1ccccc1OC2 [(M), (Z)-1-[3-(9-Bromo-6,11-dihydrodibenz [b,e]-oxepin-11-ylidene)propyl]pyrrolidine] | 95
CN(C)CC/C=C1\c2ccccc2COc2ccc(Br)cc21 [(B), (E)-3-(2-Bromo-6,11-dihydrodibenz [b,e]oxepin-11-ylidene)-N,N-dimethylpropylamine 3/2 hydrochloride] | 100
Brc1cccc2c1OCc1ccccc1C2=CCN1CCCC1 [(J), 1-[2-(4-Bromo-6,11-dihydrodibenz[b,e]oxepin-11-ylidine)-ethyl]pyrrolidine 60% Z, 40% E] | 88

same assay, conditions: human, kb v-1 cells, 10 μM potentiating agent alone, fraction of untreated cultures, read-out: Cytotoxicity, normalized absorbance, Drug Resistant KB V-1, 0 (no Act D)

Compound | viability at 96 h, 10 µM [%]
Fc1ccc2c(c1)/C(=C\CCN1CCCC1)c1ccccc1CO2 [(T), (Z)-1-[3-(2-fluoro-6,11-dihydrodibenz [b,e]-oxepin-11-ylidene)propyl]pyrrolidine] | 84
CN(C)CC/C=C1/c2ccccc2COc2ccc(F)cc21 [(Q), (Z)-3-(2-fluoro-6,11-dihydrodibenz [b,e]oxepin-11-ylidene)-N,N-dimethylpropylamine] | 80
Brc1ccc2c(c1)/C(=C/CCN1CCCC1)c1ccccc1OC2 [(M), (Z)-1-[3-(9-Bromo-6,11-dihydrodibenz [b,e]-oxepin-11-ylidene)propyl]pyrrolidine] | 65
CN(C)CC/C=C1\c2ccccc2COc2ccc(Br)cc21 [(B), (E)-3-(2-Bromo-6,11-dihydrodibenz [b,e]oxepin-11-ylidene)-N,N-dimethylpropylamine 3/2 hydrochloride] | 44
Brc1cccc2c1OCc1ccccc1C2=CCN1CCCC1 [(J), 1-[2-(4-Bromo-6,11-dihydrodibenz[b,e]oxepin-11-ylidine)-ethyl]pyrrolidine 60% Z, 40% E] | 45

system: human KB epidermoid carcinoma cells, drug resistant KB V-1; test: as above; type: cell-based; conditions: 1 μM potentiating agent + Act D 20 nM; 96 h; fraction of Act D alone

Compound | Synergism with Actinomycin D, normalized absorbance, Drug Resistant KB V-1, +ACT D
Fc1ccc2c(c1)/C(=C\CCN1CCCC1)c1ccccc1CO2 [(T), (Z)-1-[3-(2-fluoro-6,11-dihydrodibenz [b,e]-oxepin-11-ylidene)propyl]pyrrolidine] | 0.92
CN(C)CC/C=C1/c2ccccc2COc2ccc(F)cc21 [(Q), (Z)-3-(2-fluoro-6,11-dihydrodibenz [b,e]oxepin-11-ylidene)-N,N-dimethylpropylamine] | 0.83
Brc1ccc2c(c1)/C(=C/CCN1CCCC1)c1ccccc1OC2 [(M), (Z)-1-[3-(9-Bromo-6,11-dihydrodibenz [b,e]-oxepin-11-ylidene)propyl]pyrrolidine] | 1.00
Brc1cccc2c1OCc1ccccc1C2=CCN1CCCC1 [(J), 1-[2-(4-Bromo-6,11-dihydrodibenz[b,e]oxepin-11-ylidine)-ethyl]pyrrolidine 60% Z, 40% E] | 0.74

same assay, conditions: 10 μM potentiating agent + Act D 20 nM; 96 h; fraction of Act D alone

Compound | Synergism with Actinomycin D, normalized absorbance, Drug Resistant KB V-1, +ACT D
Fc1ccc2c(c1)/C(=C\CCN1CCCC1)c1ccccc1CO2 [(T), (Z)-1-[3-(2-fluoro-6,11-dihydrodibenz [b,e]-oxepin-11-ylidene)propyl]pyrrolidine] | 0.64
CN(C)CC/C=C1/c2ccccc2COc2ccc(F)cc21 [(Q), (Z)-3-(2-fluoro-6,11-dihydrodibenz [b,e]oxepin-11-ylidene)-N,N-dimethylpropylamine] | 0.65
Brc1ccc2c(c1)/C(=C/CCN1CCCC1)c1ccccc1OC2 [(M), (Z)-1-[3-(9-Bromo-6,11-dihydrodibenz [b,e]-oxepin-11-ylidene)propyl]pyrrolidine] | 0.31
CN(C)CC/C=C1\c2ccccc2COc2ccc(Br)cc21 [(B), (E)-3-(2-Bromo-6,11-dihydrodibenz [b,e]oxepin-11-ylidene)-N,N-dimethylpropylamine 3/2 hydrochloride] | 0.01
Brc1cccc2c1OCc1ccccc1C2=CCN1CCCC1 [(J), 1-[2-(4-Bromo-6,11-dihydrodibenz[b,e]oxepin-11-ylidine)-ethyl]pyrrolidine 60% Z, 40% E] | 0.01

system: not listed separately; test: in vitro; type: cell-based, Chinese hamster; conditions: hamster, cho auxb1 cells

Compound | viability at 96 h, 1 µM [%] | viability at 96 h, 10 µM [%]
Fc1ccc2c(c1)/C(=C\CCN1CCCC1)c1ccccc1CO2 [(T), (Z)-1-[3-(2-fluoro-6,11-dihydrodibenz [b,e]-oxepin-11-ylidene)propyl]pyrrolidine] | 100 | 100
CN(C)CC/C=C1/c2ccccc2COc2ccc(F)cc21 [(Q), (Z)-3-(2-fluoro-6,11-dihydrodibenz [b,e]oxepin-11-ylidene)-N,N-dimethylpropylamine] | 97 | 93
Brc1ccc2c(c1)/C(=C/CCN1CCCC1)c1ccccc1OC2 [(M), (Z)-1-[3-(9-Bromo-6,11-dihydrodibenz [b,e]-oxepin-11-ylidene)propyl]pyrrolidine] | 79 | 84
CN(C)CC/C=C1\c2ccccc2COc2ccc(Br)cc21 [(B), (E)-3-(2-Bromo-6,11-dihydrodibenz [b,e]oxepin-11-ylidene)-N,N-dimethylpropylamine 3/2 hydrochloride] | 98 | 87
Brc1cccc2c1OCc1ccccc1C2=CCN1CCCC1 [(J), 1-[2-(4-Bromo-6,11-dihydrodibenz[b,e]oxepin-11-ylidine)-ethyl]pyrrolidine 60% Z, 40% E] | 100 | 100
